pIC50: −log10 of the molar value.
Target: USP7 (Homo sapiens, UniProt Q93009)
Test: biochemical
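Note: fluorescence intensity readout of USP7 enzymatic activity, reaction incubated 90 min at room temperature.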

Chain of USP7 (Q93009 whole entry): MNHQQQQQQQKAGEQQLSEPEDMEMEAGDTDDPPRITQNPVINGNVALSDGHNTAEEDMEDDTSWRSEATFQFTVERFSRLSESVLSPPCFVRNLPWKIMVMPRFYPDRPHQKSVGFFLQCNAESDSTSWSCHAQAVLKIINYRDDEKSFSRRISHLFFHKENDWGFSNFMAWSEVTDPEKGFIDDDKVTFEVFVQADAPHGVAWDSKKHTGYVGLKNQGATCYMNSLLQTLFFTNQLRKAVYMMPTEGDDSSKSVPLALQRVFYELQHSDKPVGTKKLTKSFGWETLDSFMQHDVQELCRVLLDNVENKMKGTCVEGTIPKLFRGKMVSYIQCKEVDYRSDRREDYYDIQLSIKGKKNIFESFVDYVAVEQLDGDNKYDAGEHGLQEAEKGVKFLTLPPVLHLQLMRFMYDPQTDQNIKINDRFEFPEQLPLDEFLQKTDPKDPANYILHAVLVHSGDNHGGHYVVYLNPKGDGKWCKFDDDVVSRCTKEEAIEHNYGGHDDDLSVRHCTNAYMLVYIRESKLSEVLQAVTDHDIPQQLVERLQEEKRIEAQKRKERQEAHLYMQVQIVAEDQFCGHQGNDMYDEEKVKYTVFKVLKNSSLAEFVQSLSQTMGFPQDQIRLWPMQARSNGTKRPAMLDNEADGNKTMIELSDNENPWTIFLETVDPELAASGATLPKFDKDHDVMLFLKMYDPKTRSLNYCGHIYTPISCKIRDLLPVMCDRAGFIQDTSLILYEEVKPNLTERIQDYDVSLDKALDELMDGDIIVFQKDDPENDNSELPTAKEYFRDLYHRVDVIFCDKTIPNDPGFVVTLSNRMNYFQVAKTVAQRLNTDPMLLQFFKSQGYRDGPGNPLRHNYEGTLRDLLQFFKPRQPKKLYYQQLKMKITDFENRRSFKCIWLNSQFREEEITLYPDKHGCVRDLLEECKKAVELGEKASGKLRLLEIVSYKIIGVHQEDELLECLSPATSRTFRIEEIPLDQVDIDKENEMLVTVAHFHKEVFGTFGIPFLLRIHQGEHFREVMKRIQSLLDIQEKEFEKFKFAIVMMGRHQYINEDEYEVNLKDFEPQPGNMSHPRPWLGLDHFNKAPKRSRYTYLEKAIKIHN
Method: Example A. Biochemical Assay of USP7 Inhibitor Potency (IC50)
Fluorescence intensity assay of USP7 activity in the presence USP7 inhibitors. Recombinant USP7 protein (catalogue number E-519) and the fluorescence substrate ubiquitin-rhodamine 110 (Rh110) (catalogue number U-555) were purchased from Boston Biochem (840 Memorial Drive, Cambridge, MA 02139). The reaction was carried out in buffer 20 mM HEPES, pH 7.3, 150 mM NaCl, 1 mM TCEP, 125 μg/mL BSA at room temperature in a black 384-well Microplate (Greiner, catalog number 781076).
Test compounds were dissolved in DMSO to make 50 mM stock solution. […] In wells of a black 384-well Microplate, 15 μl of 100 pM of USP7 enzyme was added to each well with pre-diluted compounds and incubated at room temperature for 30 minutes, followed by addition of 10 μl of ubiquitin-rhodamine 110 (Rh110) substrate to reach 160 nM final concentration. The reaction mixtures were incubated for additional 90 minutes at room temperature. The fluorescence signal of the digested substrate was measured on an EnVision microplate reader (PerkinElmer,), using excitation at 485 nm and emission at 535 nm. The IC50 values were calculated using XLfit software.

pIC50 | Structure (SMILES)
> 8.00 | O=c1ccn(C[C@@H](O)C(F)(F)F)c(=O)n1Cc1cc2nccc(-c3cc(Cl)cc4c3N([C@H]3CCNC3)CCC4)c2s1 [Example 65, 3-((7-(6-chloro-1-((S)-pyrrolidin-3-yl)-1,2,3,4-tetrahydroquinolin-8-yl)thieno[3,2-b]pyridin-2-yl)methyl)-1-((R)-3,3,3-trifluoro-2-hydroxypropyl)pyrimidine-2,4(1H,3H)-dione]
> 8.00 | COCCc1cnn(Cc2cc3nccc(-c4cc(Cl)cc5c4N([C@H]4CCNC4)CCC5)c3s2)c(=O)c1 [Example 66, (S)-2-((7-(6-chloro-1-(pyrrolidin-3-yl)-1,2,3,4-tetrahydroquinolin-8-yl)thieno[3,2-b]pyridin-2-yl)methyl)-5-(2-methoxyethyl)pyridazin-3(2H)-one]
> 8.00 | O=c1ccn(CCC(F)F)c(=O)n1Cc1cc2nccc(-c3cc(Cl)cc4c3N([C@H]3CCNC3)CCC4)c2s1 [Example 67, (S)-3-((7-(6-chloro-1-(pyrrolidin-3-yl)-1,2,3,4-tetrahydroquinolin-8-yl)thieno[3,2-b]pyridin-2-yl)methyl)-1-(3,3-difluoropropyl)pyrimidine-2,4(1H,3H)-dione]
> 8.00 | O=c1n(Cc2cc3nccc(-c4cc(Cl)cc5c4N([C@H]4CCNC4)CCC5)c3s2)nc2n1CCC2 [Example 68, (S)-2-((7-(6-chloro-1-(pyrrolidin-3-yl)-1,2,3,4-tetrahydroquinolin-8-yl)thieno[3,2-b]pyridin-2-yl)methyl)-6,7-dihydro-2H-pyrrolo[2,1-c][1,2,4]triazol-3(5H)-one]
> 8.00 | O=c1ccn(CC2(C(F)F)CC2)c(=O)n1Cc1cc2nccc(-c3cc(Cl)cc4c3N([C@H]3CCNC3)CCC4)c2s1 [Example 69, (S)-3-((7-(6-chloro-1-(pyrrolidin-3-yl)-1,2,3,4-tetrahydroquinolin-8-yl)thieno[3,2-b]pyridin-2-yl)methyl)-1-((1-(difluoromethyl)cyclopropyl)methyl)pyrimidine-2,4(1H,3H)-dione]
> 8.00 | N#CC1(Cn2ccc(=O)n(Cc3cc4nccc(-c5cc(Cl)cc6c5N([C@H]5CCNC5)CCC6)c4s3)c2=O)CC1 [Example 70, (S)-1-((3-((7-(6-chloro-1-(pyrrolidin-3-yl)-1,2,3,4-tetrahydroquinolin-8-yl)thieno[3,2-b]pyridin-2-yl)methyl)-2,4-dioxo-3,4-dihydropyrimidin-1(2H)-yl)methyl)cyclopropanecarbonitrile]
6.00 to 7.00 | O=C1c2ccccc2CN1Cc1cc2nccc(-c3cc(Cl)cc4c3N([C@H]3CCNC3)CCC4)c2s1 [Example 71, (S)-2-((7-(6-chloro-1-(pyrrolidin-3-yl)-1,2,3,4-tetrahydroquinolin-8-yl)thieno[3,2-b]pyridin-2-yl)methyl)isoindolin-1-one]
> 8.00 | O=c1ccn(C2CC2)c(=O)n1Cc1cc2nccc(-c3cc(Cl)cc4c3N([C@H]3CCNC3)CCC4)c2s1 [Example 72, (S)-3-((7-(6-chloro-1-(pyrrolidin-3-yl)-1,2,3,4-tetrahydroquinolin-8-yl)thieno[3,2-b]pyridin-2-yl)methyl)-1-cyclopropylpyrimidine-2,4(1H,3H)-dione]
> 8.00 | O=C1COC(=O)N1Cc1cc2nccc(-c3cc(Cl)cc4c3N([C@H]3CCNC3)CCC4)c2s1 [Example 73, (S)-3-((7-(6-chloro-1-(pyrrolidin-3-yl)-1,2,3,4-tetrahydroquinolin-8-yl)thieno[3,2-b]pyridin-2-yl)methyl)oxazolidine-2,4-dione]
> 8.00 | CN1CC(=O)N(Cc2cc3nccc(-c4cc(Cl)cc5c4N([C@H]4CCNC4)CCC5)c3s2)C1=O [Example 74, (S)-3-((7-(6-chloro-1-(pyrrolidin-3-yl)-1,2,3,4-tetrahydroquinolin-8-yl)thieno[3,2-b]pyridin-2-yl)methyl)-1-methylimidazolidine-2,4-dione]
> 8.00 | O=c1ccn(C2CC(F)(F)C2)c(=O)n1Cc1cc2nccc(-c3cc(Cl)cc4c3N([C@H]3CCNC3)CCC4)c2s1 [Example 75]
> 8.00 | CN1CCC(=O)N(Cc2cc3nccc(-c4cc(Cl)cc5c4N([C@H]4CCNC4)CCC5)c3s2)C1=O [Example 76, (S)-3-((7-(6-chloro-1-(pyrrolidin-3-yl)-1,2,3,4-tetrahydroquinolin-8-yl)thieno[3,2-b]pyridin-2-yl)methyl)-1-methyldihydropyrimidine-2,4(1H,3H)-dione]
> 8.00 | O=C1CCN(CC(F)(F)F)C(=O)N1Cc1cc2nccc(-c3cc(Cl)cc4c3N([C@H]3CCNC3)CCC4)c2s1 [Example 77, (S)-3-((7-(6-chloro-1-(pyrrolidin-3-yl)-1,2,3,4-tetrahydroquinolin-8-yl)thieno[3,2-b]pyridin-2-yl)methyl)-1-(2,2,2-trifluoroethyl)dihydropyrimidine-2,4(1H,3H)-dione]
> 8.00 | O=c1ccn(CC(F)F)c(=O)n1Cc1cc2nccc(-c3cc(C(F)(F)F)cc4c3N([C@H]3CCNC3)CCC4)c2s1 [Example 81, (S)-1-(2,2-difluoroethyl)-3-((7-(1-(pyrrolidin-3-yl)-6-(trifluoromethyl)-1,2,3,4-tetrahydroquinolin-8-yl)thieno[3,2-b]pyridin-2-yl)methyl)pyrimidine-2,4(1H,3H)-dione]
> 8.00 | N#Cc1cc2c(c(-c3ccnc4cc(CN5C(=O)CCC5=O)sc34)c1)N([C@H]1CCNC1)CCC2 [Example 82, (S)-8-(2-((2,5-dioxopyrrolidin-1-yl)methyl)thieno[3,2-b]pyridin-7-yl)-1-(pyrrolidin-3-yl)-1,2,3,4-tetrahydroquinoline-6-carbonitrile]
> 8.00 | N#Cc1cc2c(c(-c3ccnc4cc(Cn5c(=O)ccn(CC(F)(F)F)c5=O)sc34)c1)N([C@H]1CCNC1)CCC2 [Example 83, (S)-8-(2-((2,6-dioxo-3-(2,2,2-trifluoroethyl)-2,3-dihydropyrimidin-1(6H)-yl)methyl)thieno[3,2-b]pyridin-7-yl)-1-(pyrrolidin-3-yl)-1,2,3,4-tetrahydroquinoline-6-carbonitrile]
> 8.00 | CCN1CC[C@H](N2CCCc3cc(C#N)cc(-c4ccnc5cc(Cn6c(=O)ccn(CC(F)(F)F)c6=O)sc45)c32)C1 [Example 84, (S)-8-(2-((2,6-dioxo-3-(2,2,2-trifluoroethyl)-2,3-dihydropyrimidin-1(6H)-yl)methyl)thieno[3,2-b]pyridin-7-yl)-1-(1-ethylpyrrolidin-3-yl)-1,2,3,4-tetrahydroquinoline-6-carbonitrile]
7.00 to 8.00 | CO[C@H]1C[C@@H](N2CC[C@H](N3CCCc4cc(C#N)cc(-c5ccnc6cc(Cn7c(=O)ccn(CC(F)(F)F)c7=O)sc56)c43)C2)C1 [Example 85, 8-(2-((2,6-dioxo-3-(2,2,2-trifluoroethyl)-2,3-dihydropyrimidin-1(6H)-yl)methyl)thieno[3,2-b]pyridin-7-yl)-1-((S)-1-((1s,3R)-3-methoxycyclobutyl)pyrrolidin-3-yl)-1,2,3,4-tetrahydroquinoline-6-carbonitrile]
7.00 to 8.00 | N#Cc1cc2c(c(-c3ccnc4cc(Cn5c(=O)ccn(CC(F)(F)F)c5=O)sc34)c1)N([C@H]1CCN(C3CCC3)C1)CCC2 [Example 86, (S)-1-(1-cyclobutylpyrrolidin-3-yl)-8-(2-((2,6-dioxo-3-(2,2,2-trifluoroethyl)-2,3-dihydropyrimidin-1(6H)-yl)methyl)thieno[3,2-b]pyridin-7-yl)-1,2,3,4-tetrahydroquinoline-6-carbonitrile]
> 8.00 | Cn1ccc(=O)n(Cc2cc3nccc(-c4cc(C#N)cc5c4N([C@H]4CCNC4)CCC5)c3s2)c1=O [Example 87, (S)-8-(2-((3-methyl-2,6-dioxo-2,3-dihydropyrimidin-1(6H)-yl)methyl)thieno[3,2-b]pyridin-7-yl)-1-(pyrrolidin-3-yl)-1,2,3,4-tetrahydroquinoline-6-carbonitrile]
> 8.00 | N#Cc1cc2c(c(-c3ccnc4cc(Cn5c(=O)ccn(C6CC6)c5=O)sc34)c1)N([C@H]1CCNC1)CCC2 [Example 88, (S)-8-(2-((3-cyclopropyl-2,6-dioxo-2,3-dihydropyrimidin-1(6H)-yl)methyl)thieno[3,2-b]pyridin-7-yl)-1-(pyrrolidin-3-yl)-1,2,3,4-tetrahydroquinoline-6-carbonitrile]
> 8.00 | CC(F)(F)Cn1ccc(=O)n(Cc2cc3nccc(-c4cc(C#N)cc5c4N([C@H]4CCNC4)CCC5)c3s2)c1=O [Example 89, (S)-8-(2-((3-(2,2-difluoropropyl)-2,6-dioxo-2,3-dihydropyrimidin-1(6H)-yl)methyl)thieno[3,2-b]pyridin-7-yl)-1-(pyrrolidin-3-yl)-1,2,3,4-tetrahydroquinoline-6-carbonitrile]
> 8.00 | O=c1ccn(CC(F)(F)F)c(=O)n1Cc1cc2ncnc(-c3cc(Cl)cc4c3N([C@H]3CCNC3)CCC4)c2s1 [Example 91, (S)-3-((4-(6-chloro-1-(pyrrolidin-3-yl)-1,2,3,4-tetrahydroquinolin-8-yl)thieno[3,2-d]pyrimidin-6-yl)methyl)-1-(2,2,2-trifluoroethyl)pyrimidine-2,4(1H,3H)-dione]
> 8.00 | N#Cc1cc2c(c(-c3ncnc4cc(Cn5c(=O)ccn(CC(F)(F)F)c5=O)sc34)c1)N([C@H]1CCNC1)CCC2 [Example 92, (S)-8-(6-((2,6-dioxo-3-(2,2,2-trifluoroethyl)-2,3-dihydropyrimidin-1(6H)-yl)methyl)thieno[3,2-d]pyrimidin-4-yl)-1-(pyrrolidin-3-yl)-1,2,3,4-tetrahydroquinoline-6-carbonitrile]
> 8.00 | N#Cc1cc2c(c(-c3ncnc4cc(Cn5c(=O)ccn(CC(F)(F)F)c5=O)sc34)c1)N([C@@H]1CCNC1)CCC2 [Example 93, (R)-8-(6-((2,6-dioxo-3-(2,2,2-trifluoroethyl)-2,3-dihydropyrimidin-1(6H)-yl)methyl)thieno[3,2-d]pyrimidin-4-yl)-1-(pyrrolidin-3-yl)-1,2,3,4-tetrahydroquinoline-6-carbonitrile]
> 8.00 | COCCn1ccc(=O)n(Cc2cc3nccc(-c4cc(Cl)cc5c4N([C@@H]4CCNC4)CCC5)c3s2)c1=O [Example 100, (R)-3-((7-(6-chloro-1-(pyrrolidin-3-yl)-1,2,3,4-tetrahydroquinolin-8-yl)thieno[3,2-b]pyridin-2-yl)methyl)-1-(2-methoxyethyl)pyrimidine-2,4(1H,3H)-dione]

— US20240158412A1 (Faxian Therapeutics, LLC, priority 2021, published 2024)
